Data published in patent US20250122219A1 (priority 2023, published 2025).
Where two headings read alike, the source gives them in different places.

Assays:
[1] = tested on: HIV-1 (IIIB); assay: Antiviral assay in MT-4 cells; type: cell-based
Outline: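 HIV-1 IIIB-infected MT-4 cells (fresh 1:250 virus stock dilution; mock-infected controls) incubated 5 days at 37 °C with serially diluted compounds in RPMI/10% FBS; 5 μM AZT as positive control. Cell viability read by CellTiter-Glo luminescence as measure of protection from viral replication.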

[2] = Cytotoxicity assay in MT-4 cells; type: cell-based; conditions: human; uninfected MT-4 cells, 5 days incubation, Cell Titer Glo; read-out: MT4 CC50
Outline: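 Uninfected MT-4 cells exposed to serially diluted compounds in RPMI with 10% FBS for 5 days at 37 °C. Viability by Cell Titer Glo chemiluminescence. Puromycin […] as baseline cytotoxicity control.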

[3] = Human immunodeficiency virus 1, MT4, 120 h, HIV-1 IIIB in MT-4 cells, 5 days incubation, Cell Titer Glo, read-out: MT4 EC50

Row | SMILES | EC50 [1, 3] [nM] | CC50 at 5 days [2] [nM] | EC50 ([1]; Human immunodeficiency virus 1, IIIB, MT4, 120 h, read-out: MT4 EC50 (nM)) [nM]
1 | CCCCCCCCC(=O)Oc1c2n(cc(C(=O)NCc3ccc(F)cc3F)c1=O)[C@@H]1CN(C2=O)[C@@H](C)CC[C@]12CC(C)=NO2 [Example 43, (3′S,5S,7′R)-10′-((2,4-difluorobenzyl)carbamoyl)-3,3′-dimethyl-1′,11′-dioxo-1′,4′,5′,11′-tetrahydro-3′H,4H,7′H-spiro[isoxazole-5,6′-[2,7]methanopyrido[1,2-a][1,4]diazonin]-12′-yl nonanoate] | 1.97 | 21100 | –
2 | COCCOC(=O)Oc1c2n(cc(C(=O)NCc3ccc(F)cc3F)c1=O)[C@@H]1CN(C2=O)[C@@H](C)CC[C@]12CC(OC)=NO2 [Example 1, (3′S,5S,7′R)-10′-((2,4-difluorobenzyl)carbamoyl)-3-methoxy-3′-methyl-1′,11′-dioxo-1′,4′,5′,11′-tetrahydro-3′H,4H,7′H-spiro[isoxazole-5,6′-[2,7]methanopyrido[1,2-a][1],4diazonin]-12′-yl (2-methoxyethyl) carbonate] | 1.48 | 10900 | –
3 | CC/C=C\C/C=C\C/C=C\C/C=C\C/C=C\CCCC(=O)Oc1c2n(cc(C(=O)NCc3ccc(F)cc3F)c1=O)[C@@H]1CN(C2=O)[C@@H](C)CC[C@]12CC(C)=NO2 [Example 68, (3′S,5S,7′R)-10′-((2,4-difluorobenzyl)carbamoyl)-3,3′-dimethyl-1′,11′-dioxo-1′,4′,5′,11′-tetrahydro-3′H,4H,7′H-spiro[isoxazole-5,6′-[2,7]methanopyrido[1,2-a][1,4]diazonin]-12′-yl (5Z,8Z,11Z,14Z,17Z)-icosa-5,8,11,14,17-pentaenoate] | 1.09 | 16500 | –
4 | COC1=NO[C@@]2(CC[C@H](C)N3C[C@H]2n2cc(C(=O)NCc4ccc(F)cc4F)c(=O)c(OC(=O)/C=C/C(=O)O)c2C3=O)C1 [Example 25, (E)-4-(((3′S,5S,7′R)-10′-((2,4-difluorobenzyl)carbamoyl)-3-methoxy-3′-methyl-1′,11′-dioxo-1′,4′,5′,11′-tetrahydro-3′H,4H,7′H-spiro[isoxazole-5,6′-[2,7]methanopyrido[1,2-a][1,4]diazonin]-12′-yl)oxy)-4-oxobut-2-enoic acid] | – | 16200 | 1.9
5 | COC1=NO[C@@]2(CC[C@H](C)N3C[C@H]2n2cc(C(=O)NCc4ccc(F)cc4F)c(=O)c(OCOC(=O)CC(C)C)c2C3=O)C1 [Example 110, (((3′S,5S,7′R)-10′-((2,4-difluorobenzyl)carbamoyl)-3-methoxy-3′-methyl-1′,11′-dioxo-1′,4′,5′,11′-tetrahydro-3′H,4H,7′H-spiro[isoxazole-5,6′-[2,7]methanopyrido[1,2-a][1,4]diazonin]-12′-yl)oxy)methyl 3-methylbutanoate] | 1.5 | 16400 | –
6 | CCCCCCCCCCCCCCCC(=O)Oc1c2n(cc(C(=O)NCc3ccc(F)cc3F)c1=O)[C@@H]1CN(C2=O)[C@@H](C)CC[C@]12CC(C)=NO2 [Example 14, (3′S,5S,7′R)-10′-((2,4-difluorobenzyl)carbamoyl)-3,3′-dimethyl-1′,11′-dioxo-1′,4′,5′,11′-tetrahydro-3′H,4H,7′H-spiro[isoxazole-5,6′-[2,7]methanopyrido[1,2-a][1,4]diazonin]-12′-yl palmitate] | 6.46 | ≥ 50000 | –
7 | CCCCCCCCCCCCCCCCCC(=O)OCOc1c2n(cc(C(=O)NCc3ccc(F)cc3F)c1=O)[C@@H]1CN(C2=O)[C@@H](C)CC[C@]12CC(C)=NO2 [Example 107, (((3′S,5S,7′R)-10′-((2,4-difluorobenzyl)carbamoyl)-3,3′-dimethyl-1′,11′-dioxo-1′,4′,5′,11′-tetrahydro-3′H,4H,7′H-spiro[isoxazole-5,6′-[2,7]methanopyrido[1,2-a][1,4]diazonin]-12′-yl)oxy)methyl stearate] | 32.3 | ≥ 50000 | –
8 | COC1=NO[C@@]2(CC[C@H](C)N3C[C@H]2n2cc(C(=O)NCc4ccc(F)cc4F)c(=O)c(OCOC(=O)OCCC(C)C)c2C3=O)C1 [Example 202, (((3′S,5S,7′R)-10′-((2,4-difluorobenzyl)carbamoyl)-3-methoxy-3′-methyl-1′,11′-dioxo-1′,4′,5′,11′-tetrahydro-3′H,4H,7′H-spiro[isoxazole-5,6′-[2,7]methanopyrido[1,2-a][1,4]diazonin]-12′-yl)oxy)methyl isopentyl carbonate] | 2.71 | 21600 | –
9 | CCCCCCCCCOC(=O)OCOc1c2n(cc(C(=O)NCc3ccc(F)cc3F)c1=O)[C@@H]1CN(C2=O)[C@@H](C)CC[C@]12CC(OC)=NO2 [Example 187, (((3′S,5S,7′R)-10′-((2,4-difluorobenzyl)carbamoyl)-3-methoxy-3′-methyl-1′,11′-dioxo-1′,4′,5′,11′-tetrahydro-3′H,4H,7′H-spiro[isoxazole-5,6′-[2,7]methanopyrido[1,2-a][1,4]diazonin]-12′-yl)oxy)methyl nonyl carbonate] | 3.25 | 43900 | –
10 | CCOC(=O)Oc1c2n(cc(C(=O)NCc3ccc(F)cc3F)c1=O)[C@@H]1CN(C2=O)[C@@H](C)CC[C@]12CC(C)=NO2 [Example 123, (3′S,5S,7′R)-10′-((2,4-difluorobenzyl)carbamoyl)-3,3′-dimethyl-1′,11′-dioxo-1′,4′,5′,11′-tetrahydro-3′H,4H,7′H-spiro[isoxazole-5,6′-[2,7]methanopyrido[1,2-a][1,4]diazonin]-12′-yl ethyl carbonate] | 1.73 | 14100 | –
11 | CC1=NO[C@@]2(CC[C@H](C)N3C[C@H]2n2cc(C(=O)NCc4ccc(F)cc4F)c(=O)c(OC(=O)CCCCCCC(C)C)c2C3=O)C1 [Example 67, (3′S,5S,7′R)-10′-((2,4-difluorobenzyl)carbamoyl)-3,3′-dimethyl-1′,11′-dioxo-1′,4′,5′,11′-tetrahydro-3′H,4H,7′H-spiro[isoxazole-5,6′-[2,7]methanopyrido[1,2-a][1,4]diazonin]-12′-yl 8-methylnonanoate] | 0.196 | 18900 | –
12 | CC1=NO[C@@]2(CC[C@H](C)N3C[C@H]2n2cc(C(=O)NCc4ccc(F)cc4F)c(=O)c(OC(=O)CCCC(C)C)c2C3=O)C1 [Example 61, (3′S,5S,7′R)-10′-((2,4-difluorobenzyl)carbamoyl)-3,3′-dimethyl-1′,11′-dioxo-1′,4′,5′,11′-tetrahydro-3′H,4H,7′H-spiro[isoxazole-5,6′-[2,7]methanopyrido[1,2-a][1,4]diazonin]-12′-yl 5-methylhexanoate] | 0.733 | 20600 | –
13 | COC(=O)N[C@H](C(=O)Oc1c2n(cc(C(=O)NCc3ccc(F)cc3F)c1=O)[C@@H]1CN(C2=O)[C@@H](C)CC[C@]12CC(OC)=NO2)C(C)C [Example 80] | 1.3 | 19800 | –
14 | COC1=NO[C@@]2(CC[C@H](C)N3C[C@H]2n2cc(C(=O)NCc4ccc(F)cc4F)c(=O)c(OC(=O)C4CCCC4)c2C3=O)C1 [Example 52, (3′S,5S,7′R)-10′-((2,4-difluorobenzyl)carbamoyl)-3-methoxy-3′-methyl-1′,11′-dioxo-1′,4′,5′,11′-tetrahydro-3′H,4H,7′H-spiro[isoxazole-5,6′-[2,7]methanopyrido[1,2-a][1,4]diazonin]-12′-yl cyclopentanecarboxylate] | 0.604 | 24700 | –
